Columns and labels:
[1] = target: Vesicular acetylcholine transporter (Torpedo californica); test: Inhibition of active transport of [3H]acetylcholine using purified Torpedo californica synaptic vesicles
[2] = target: Vesicular acetylcholine transporter (Torpedo californica); test: as above; remark: listed apart in the source

Row | Structure (SMILES) | IC50 [1] | IC50 [2]
1 | O=C(CCCCC1SCC2NC(=O)NC21)NCC(=O)NCC(=O)Nc1cccc2c1CC(N1CCC(c3ccccc3)CC1)C(O)C2 (configuration not stated) | 200 nM | 
2 | O[C@@H]1[C@H](O)CCC[C@H]1N1CCC(c2ccccc2)CC1 | 100 nM | 
3 | OC1CCCCC1N1CCCCC1 (configuration not stated) | > 40000 nM | 
4 | CCC(O)C[N+]1(C)CCC(c2ccccc2)CC1 (configuration not stated) | 2000 nM | 
5 | CC1(c2ccccc2)CCCN(C2CCCCC2O)C1 (configuration not stated) | 4000 nM | 
6 | OC1CCCCC1N1CC=C(c2ccc(Cl)cc2)CC1 (configuration not stated) | 200 nM | 
7 | OC1CCCCC1N1C=NC(c2ccccc2)C1 (configuration not stated) | 40000 nM | 
8 | Nc1cccc2c1CC(N1CCC(c3ccccc3)CC1)C(O)C2 (configuration not stated) | 100 nM | 
9 | O=C(CCCCC1SCC2NC(=O)NC21)Nc1cccc2c1CC(N1CCC(c3ccccc3)CC1)C(O)C2 (configuration not stated) | 100 nM | 
10 | CC(=O)OCC[N+]1(C)CCC(c2ccccc2)CC1 (configuration not stated) | 4000 nM | 
11 | OC1CCCCC1N1CCN(c2ccccc2)CC1 (configuration not stated) | 300 nM | 
12 | CN(CCCc1ccccc1)C1CCCCC1O (configuration not stated) | 2000 nM | 
13 | C[N+]1(CCO)CCC(c2ccccc2)CC1 (configuration not stated) | 8000 nM | 
14 | COc1ccccc1N1CCN(C2CC3CCCCC3CC2O)CC1 (configuration not stated) |  | 300 nM
15 | Nc1ccc(C2CCN(C3CCCCC3O)CC2)cc1 (configuration not stated) | 500 nM | 
16 | CC(=O)OC1CCCCC1N1CCC(c2ccccc2)CC1 (configuration not stated) | 2000 nM | 
17 | CN(CCc1ccccc1)C1CCCCC1O (configuration not stated) | 20000 nM | 
18 | CNc1ccc(C2CCN(C3CCCCC3O)CC2)cc1 (configuration not stated) | 400 nM | 
19 | O=C(O)CCC(=O)Nc1cccc2c1CC(N1CCC(c3ccccc3)CC1)C(O)C2 (configuration not stated) | 50 nM | 
20 | OC1CCCCC1N1CC=C(c2ccccc2)CC1 (configuration not stated) | 200 nM | 
21 | OC1CN(C2CCCCC2O)CCC1c1ccccc1 (configuration not stated) | 200 nM | 
22 | COc1ccc2c3c1OC1C(O)C=CC4C(C2)N(C2CCCCC2O)CCC341 (configuration not stated) | 80000 nM | 
23 | OC1CCCCC1NC1CCc2ccccc21 (configuration not stated) | 3000 nM | 

Row | Structure (SMILES) | IC50 [1] | IC50 [2]
24 | CC(C)(C)[C@H]1CC[C@@H](N2CCC(c3ccccc3)CC2)[C@H](O)C1 | 90 nM | 
25 | O=C(O)CCC(=O)Nc1cccc2c1CC(O)C(N1CCC(c3ccccc3)CC1)C2 (configuration not stated) | 500 nM | 
26 | CC(=O)Nc1ccc(I)c2c1CC(N1CCC(c3ccccc3)CC1)C(O)C2 (configuration not stated) | 300 nM | 
27 | O=c1[nH]c2ccccc2n1C1CCN(C2CCCCC2O)CC1 (configuration not stated) | 1000 nM | 
28 | O=C(Nc1cccc2c1CC(O)C(N1CCC(c3ccccc3)CC1)C2)C(F)(F)F (configuration not stated) | 2000 nM | 
29 | CN(C)c1ccc(C2CCN(C3CCCCC3O)CC2)cc1 (configuration not stated) | 300 nM | 
30 | CCC(CN1CCC(c2ccccc2)CC1)OC(C)=O (configuration not stated) | 800 nM | 
31 | CCC(O)CN1CCC(c2ccccc2)CC1 (configuration not stated) | 300 nM | 
32 | CC1(O)CCCC[C@H]1N1CCC(c2ccccc2)CC1 (some centres not stated) | 6000 nM | 
33 | OC1CCCCC1N1CCC(c2ccc(Cl)cc2)CC1 (configuration not stated) | 100 nM | 
34 | CC1CN(C2CCCCC2O)CCN1c1ccccc1 (configuration not stated) | 300 nM | 
35 | OC1CCCCC1N1CCN(Cc2ccc3c(c2)OCO3)CC1 (configuration not stated) | 300 nM | 
36 | OC1CCCCC1N1CCC(CCC2CCN(C3CCCCC3O)CC2)CC1 (configuration not stated) | > 1000 nM | 
37 | SC1CCCCC1N1CCC(c2ccccc2)CC1 (configuration not stated) | 4000 nM | 
38 | Cc1ccc(C)c(N2CCN(C3CCCCC3O)CC2)c1 (configuration not stated) | 100 nM | 
39 | CC(=O)Nc1ccc(C2CCN(C3CCCCC3O)CC2)cc1 (configuration not stated) | 20000 nM | 
40 | O=C1CCC2(O)C3Cc4ccc(O)c5c4C2(CCN3C2CCCCC2O)C1O5 (configuration not stated) | > 100000 nM | 
41 | CC(=O)OCCN1CCC(c2ccccc2)CC1 | 9000 nM | 
42 | CN(Cc1ccccc1)C1CCCCC1O (configuration not stated) | 10000 nM | 
43 | OC1CCCCC1N1CCC(Cc2ccccc2)CC1 (configuration not stated) | 300 nM | 
44 | CC(=O)OC1CCCCC1[N+]1(C)CCC(c2ccccc2)CC1 (configuration not stated) | 5000 nM | 
45 | O=[N+]([O-])c1ccc(C2CCN(C3CCCCC3O)CC2)c([N+](=O)[O-])c1 (configuration not stated) | 300 nM | 
46 | OC1CCCCC1N1CCC(CCCc2ccccc2)CC1 (configuration not stated) | 70 nM | 

Row | Structure (SMILES) | IC50 [1] | IC50 [2]
47 | CC(=O)Nc1cccc2c1CC(O)C(N1CCC(c3ccccc3)CC1)C2 (configuration not stated) | > 2000 nM | 
48 | O[C@H]1[C@H](N2CCC(c3ccccc3)CC2)CCC[C@H]1c1ccccc1 | 600 nM | 
49 | OC[C@H]1CC[C@@H](O)[C@H](N2CCC(c3ccccc3)CC2)C1 | 800 nM | 
50 | OC1CCCCC1N1CCC(CCCC2CCN(C3CCCCC3O)CC2)CC1 (configuration not stated) | 200 nM | 
51 | OC1CCCCC1N1CC2CCC(CC2)C1 (configuration not stated) | 20000 nM | 
52 | O=[N+]([O-])c1ccc(C2CCN(C3CCCCC3O)CC2)cc1 (configuration not stated) | 100 nM | 
53 | OC1C2CCC1C(N1CCC(c3ccccc3)CC1)C2 (configuration not stated) | 10000 nM | 
54 | Nc1cccc2c1CC(O)C(N1CCC(c3ccccc3)CC1)C2 (configuration not stated) | 300 nM | 
55 | OC1CCCC1N1CCC(c2ccccc2)CC1 (configuration not stated) | 2000 nM | 
56 | O=C(c1ccccc1)N1CCN(C2CCCCC2O)CC1 (configuration not stated) | 10000 nM | 
57 | O=C1CCCCC1N1CCC(c2ccccc2)CC1 (configuration not stated) | 40000 nM | 
58 | C[N+]1(C2CCCCC2O)CCC(c2ccccc2)CC1 (configuration not stated) | > 1000 nM | 
59 | OCCN1CCC(c2ccccc2)CC1 | 10000 nM | 
60 | CO[C@H]1CCC[C@@H](N2CCC(c3ccccc3)CC2)[C@@H]1O | 2000 nM | 
61 | Cc1ccccc1N1CCN(C2CCCCC2O)CC1 (configuration not stated) | 100 nM | 
62 | OC1CCCCC1N1CCC(C2CCN(C3CCCCC3O)CC2)CC1 (configuration not stated) | 200 nM | 
63 | COc1ccc(N2CCN(C3CCCCC3O)CC2)cc1 (configuration not stated) | 300 nM | 
64 | O[C@@H]1CCCC[C@H]1CN1CCC(c2ccccc2)CC1 | 2000 nM | 
65 | O[C@H]1CCCC[C@H]1CN1CCC(c2ccccc2)CC1 | 1000 nM | 
66 | O=C(CCC(=O)Nc1cccc2c1CC(N1CCC(c3ccccc3)CC1)C(O)C2)NNC(=O)CCC(=O)Nc1cccc2c1CC(N1CCC(c3ccccc3)CC1)C(O)C2 (configuration not stated) [N-[6-Hydroxy-7-(4-phenyl-piperidin-1-yl)-5,6,7,8-tetrahydro-naphthalen-1-yl]-4-(N'-{3-[6-hydroxy-7-(4-phenyl-piperidin-1-yl)-5,6,7,8-tetrahydro-naphthalen-1-ylcarbamoyl]-propionyl}-hydrazino)-4-oxo-butyramide] | 1000 nM | 
67 | CC(C)(C)[C@H]1CC[C@@H](O)[C@H](N2CCC(c3ccccc3)CC2)C1 [trans-(4S)-4-tert-butyl-2-(4-phenylpiperidin-1-yl)cyclohexanol] | 20 nM | 

— BindingDB's records for doi:10.1021/jm00126a013 (University of California, 1989)
